Broadly, the TGI is the concentration giving total growth inhibition. Usually GI50 stands for the concentration that inhibits growth by half.

Among the test systems are 786-0 renal; A549 NSCLC; HCT-116 colon; MOLT-4 leukemia; OVCAR-3 ovarian; U251 CNS; UACC-62 melanoma; HCT-15 colon.
Assay in all cases: DTP human tumour cell line panel, 48 h

Molecules are shown by their SMILES.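 Following 48 hours of exposure in 96-well plates, responses at five concentrations were used to interpolate endpoints linearly. The concentration for 50% growth inhibition is given as GI50. TGI: concentration producing complete growth inhibition.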

As for `O=C(Cc1ccccc1)NS(=O)(=O)c1ccccc1`, the TGI with 786-0 renal, with A549 NSCLC, in the assay with HCT-116 colon, with MOLT-4 leukemia, in the assay on OVCAR-3 ovarian and in the assay on U251 CNS was > 100 µM each time. Further, in the assay on UACC-62 melanoma, the TGI is > 100 µM.
As for `CCOC(=O)NC1CC2CCC1(OC)C=C2C` (stereo not drawn), the TGI in the assay with 786-0 renal, in the assay with A549 NSCLC, with HCT-116 colon, in the assay with HCT-15 colon, in the assay with MOLT-4 leukemia and in the assay on OVCAR-3 ovarian was > 100 µM each time. In addition, the TGI with U251 CNS and in the assay on UACC-62 melanoma was > 100 µM in each case.
As for `COC(=O)C1=C(C)N(NC(N)=O)C(C)(O)C12CCOC2=O` (stereo not drawn), the TGI with 786-0 renal, in the assay on A549 NSCLC, in the assay on HCT-116 colon, in the assay on HCT-15 colon, in the assay with MOLT-4 leukemia and in the assay on OVCAR-3 ovarian was > 100 µM throughout. Further, the total growth inhibition concentration (TGI) with U251 CNS is > 100 µM.
Take `Cn1sc2ccccc2c1=S`: the TGI in the assay on 786-0 renal was found to be 13.6 µM; in the assay on A549 NSCLC, 28.8 µM; with HCT-116 colon, 13.3 µM; in the assay on HCT-15 colon, 17.3 µM; in the assay on MOLT-4 leukemia it was 14.1 µM; in the assay on OVCAR-3 ovarian it was 10.5 µM. In addition, the TGI with U251 CNS was determined as 13.5 µM; with UACC-62 melanoma, 18.1 µM.
Consider `O=NN(CCCl)C(=O)N[C@H]1CCCC[C@@H]1Cl`, for which the TGI in the assay with 786-0 renal, in the assay on A549 NSCLC, with HCT-116 colon, in the assay on HCT-15 colon, in the assay with MOLT-4 leukemia and in the assay on OVCAR-3 ovarian was > 100 µM throughout. Moreover, the TGI with U251 CNS is > 100 µM.
Take `COC1CC(OC)C(O)C(CO)O1` (stereo not drawn): the TGI with 786-0 renal, with A549 NSCLC, in the assay with HCT-116 colon, in the assay with HCT-15 colon, with MOLT-4 leukemia and with OVCAR-3 ovarian was > 100 µM each time. For the same compound, the total growth inhibition concentration (TGI) in the assay on U251 CNS and with UACC-62 melanoma was > 100 µM in each case.
Consider `O=C(O)[C@@H](NS(=O)(=O)c1ccc([N+](=O)[O-])cc1)c1ccccc1`, for which the concentration for total growth inhibition (TGI) in the assay with 786-0 renal, in the assay on A549 NSCLC, in the assay with HCT-15 colon, in the assay on MOLT-4 leukemia, with OVCAR-3 ovarian and in the assay with U251 CNS was > 100 µM in each case. Further, the TGI in the assay on UACC-62 melanoma was > 100 µM.
For the compound `Cc1ccc(N2C(=O)C(Cl)=C(Cl)C2=O)cc1`, the TGI in the assay on 786-0 renal is 31 µM; with A549 NSCLC it was > 100 µM; in the assay on HCT-116 colon, 32.9 µM; in the assay with HCT-15 colon, 33.3 µM; with MOLT-4 leukemia, 46.5 µM; with OVCAR-3 ovarian it was 30.5 µM. Besides, the TGI with U251 CNS was > 100 µM.
Take `Cc1c(CC/C(=N\Nc2ccc([N+](=O)[O-])cc2[N+](=O)[O-])c2ccccc2)c2ccccc2n1C`: the TGI in the assay on 786-0 renal was > 100 µM; in the assay on A549 NSCLC, > 100 µM; with HCT-116 colon, > 100 µM; in the assay on HCT-15 colon, > 100 µM; in the assay on MOLT-4 leukemia it was > 64.8 µM; in the assay on OVCAR-3 ovarian it was > 100 µM. For the same compound, the TGI in the assay on U251 CNS and in the assay with UACC-62 melanoma was > 100 µM each time.
On to `CCOC(=O)c1cc(OC(=O)CC)c2c(OC)ccc(OC)c2c1`, for which the TGI with 786-0 renal was > 100 µM; with A549 NSCLC, > 100 µM; in the assay with HCT-116 colon, > 100 µM; with HCT-15 colon, 96.6 µM; in the assay with MOLT-4 leukemia it was > 100 µM; in the assay on U251 CNS, > 100 µM. Besides, the TGI in the assay on UACC-62 melanoma is > 100 µM.
For `C=C[C@H]1C=Cc2c(OC)cccc2[C@@H]1COP1(=S)NC(C)C(c2ccccc2)O1` (stereo partly drawn), the TGI in the assay with 786-0 renal, with A549 NSCLC, in the assay on HCT-116 colon, in the assay with MOLT-4 leukemia, in the assay with OVCAR-3 ovarian and in the assay on U251 CNS was > 100 µM in each case. For the same compound, the TGI with UACC-62 melanoma was > 100 µM.
`C[CH2][Sn]([CH2]C)([O]C(=O)c1ccc(F)cc1)[O][Sn]([CH2]C)([CH2]C)[O]C(=O)c1ccc(F)cc1`: the GI50 with 786-0 renal is 53.6 µM; in the assay on A549 NSCLC it was > 100 µM; in the assay with HCT-116 colon it was > 100 µM; in the assay on HCT-15 colon, > 100 µM; in the assay with MOLT-4 leukemia, 47.1 µM; in the assay with OVCAR-3 ovarian it was > 100 µM. For the same compound, the GI50 in the assay with U251 CNS is 29.8 µM; in the assay with UACC-62 melanoma it was > 100 µM. Besides, the TGI in the assay on 786-0 renal, with A549 NSCLC, in the assay with HCT-116 colon, in the assay on HCT-15 colon, in the assay on MOLT-4 leukemia and in the assay on OVCAR-3 ovarian was > 100 µM throughout. Moreover, the concentration for total growth inhibition (TGI) in the assay with U251 CNS and in the assay with UACC-62 melanoma was > 100 µM throughout.
With `COc1ccccc1NC(=O)C(CC(C(=O)Nc1ccccc1OC)/C(C)=N/NC(=O)c1ccccc1O)/C(C)=N/NC(=O)c1ccccc1O` (stereo not drawn), the TGI in the assay on 786-0 renal, with A549 NSCLC, in the assay on MOLT-4 leukemia, in the assay with OVCAR-3 ovarian and with U251 CNS was > 100 µM in each case.
In the case of `CCCN1C(=O)CNC(=O)c2[nH]cnc21`, the TGI with 786-0 renal, with A549 NSCLC, in the assay with HCT-116 colon, in the assay on HCT-15 colon, with MOLT-4 leukemia and with OVCAR-3 ovarian was > 100 µM in each case. Also, the TGI in the assay on U251 CNS and with UACC-62 melanoma was > 100 µM in each case.
As for `Nc1nc(=Nc2ccccc2)ss1`, the TGI with 786-0 renal, in the assay on A549 NSCLC, in the assay on HCT-116 colon, with MOLT-4 leukemia, with OVCAR-3 ovarian and with U251 CNS was > 100 µM throughout. In the assay on UACC-62 melanoma, the TGI was > 100 µM.
In the case of `CCOC(=O)C(C(=O)OCC)=c1sc(=C(C(=O)OCC)C(=O)OCC)s1`, the concentration for total growth inhibition (TGI) with 786-0 renal, with A549 NSCLC, in the assay with HCT-15 colon, in the assay with MOLT-4 leukemia, in the assay on OVCAR-3 ovarian and in the assay with UACC-62 melanoma was > 100 µM in each case.

For the origin of these results see PubChem BioAssay (NCI).
